Measurements as given in US9980943B2, “Methods of treating muscular dystrophy” (BOARD OF REGENTS OF THE NEVADA SYSTEM OF HIGHER EDUCATION, …, priority 2013, dated 2018).

Key:
Assay type in all cases: cell-based, mouse
[1] = tested on: α7 integrin (LacZ reporter in α7+/LacZ myotubes); test: Myotube α7 integrin FDG assay (Burkin assay in myotubes, 96-well); details: myotubes
[2] = tested on: α7 integrin (LacZ reporter in α7βgal+/− myoblasts); test: Myoblast α7+/LacZ integrin FDG assay (Burkin assay in myoblasts, 96-well); details: α7+/LacZ myoblasts, 96-well
[3] = tested on: β-galactosidase in CMV-LacZ C2C12 myotubes; test: CMV-LacZ secondary screen in C2C12 myotubes (β-Gal stabilizing assay); details: C2C12 CMV-LacZ myotubes, fold relative to DMSO
Summary of the method: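 A secondary screen identifies compounds that stabilize β-gal independently of the native promoter, using CMV-LacZ C2C12 cells. Curves span 0.5–40 μM at six levels, in duplicate.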

`Cc1ccc(NC(=O)C2CCCCC2C(=O)O)cc1C` (stereo not shown) [MLS000850824-01] was tested, and the fold induction at 0.5 µM ([1]; Mus musculus, Myotube, 0.5 uM, read-out: Burkin Assay in Myotubes (signal relative to DMSO)) was 0.908, the fold induction at 1 µM ([1]; Mus musculus, Myotube, 1 uM, read-out: Burkin Assay in Myotubes (signal relative to DMSO)) was 1.09 and the fold induction at 5 µM ([1]; Mus musculus, Myotube, 5 uM, read-out: Burkin Assay in Myotubes (signal relative to DMSO)) was 0.99. For the same molecule, the fold induction at 10 µM ([1]; Mus musculus, Myotube, 10 uM, read-out: Burkin Assay in Myotubes (signal relative to DMSO)) was 1.07, the fold induction at 20 µM ([1]; Mus musculus, Myotube, 20 uM, read-out: Burkin Assay in Myotubes (signal relative to DMSO)) was 1.14 and the fold induction at 40 µM ([1]; Mus musculus, Myotube, 40 uM, read-out: Burkin Assay in Myotubes (signal relative to DMSO)) was 1.21. It also gave a fold induction at 0.5 µM ([2]; Mus musculus, Myoblast, 48 h, 0.5 uM, read-out: Burkin Assay in Myoblasts, value relative to DMSO) of 1.17, a fold induction at 1 µM ([2]; Mus musculus, Myoblast, 48 h, 1 uM, read-out: Burkin Assay in Myoblasts, value relative to DMSO) of 1.27 and a fold induction at 5 µM ([2]; Mus musculus, Myoblast, 48 h, 5 uM, read-out: Burkin Assay in Myoblasts, value relative to DMSO) of 1.08. The fold induction at 10 µM ([2]; Mus musculus, Myoblast, 48 h, 10 uM, read-out: Burkin Assay in Myoblasts, value relative to DMSO) was 1.08, the fold induction at 20 µM ([2]; Mus musculus, Myoblast, 48 h, 20 uM, read-out: Burkin Assay in Myoblasts, value relative to DMSO) was 0.986 and the fold induction at 40 µM ([2]; Mus musculus, Myoblast, 48 h, 40 uM, read-out: Burkin Assay in Myoblasts, value relative to DMSO) was 1.06. It also gave a fold induction at 5 µM ([3]; Mus musculus, C2C12, read-out: CMV-LACZ in Myotubes, signal relative to DMSO, 5 uM) of 0.885, a fold induction at 10 µM ([3]; Mus musculus, C2C12, read-out: CMV-LACZ in Myotubes, signal relative to DMSO, 10 uM) of 0.992 and a fold induction at 20 µM ([3]; Mus musculus, C2C12, read-out: CMV-LACZ in Myotubes, signal relative to DMSO, 20 uM) of 0.995. It also gave a fold induction at 40 µM ([3]; Mus musculus, C2C12, read-out: CMV-LACZ in Myotubes, signal relative to DMSO, 40 uM) of 0.946.

For `Cc1nc2c(cnn2-c2ccccc2)c(=O)n1/N=C/c1ccccc1` [MLS000860538-01], the “Burkin Assay in Myotubes, α7 integrin LacZ reporter signal relative to DMSO” value ([1]; 0.5 uM) was 0.985, the “Burkin Assay in Myotubes, α7 integrin LacZ reporter signal relative to DMSO” value ([1]; 1 uM) was 1.102 and the “Burkin Assay in Myotubes, α7 integrin LacZ reporter signal relative to DMSO” value ([1]; 5 uM) was 1.319. For the same molecule, the “Burkin Assay in Myotubes, α7 integrin LacZ reporter signal relative to DMSO” value ([1]; 10 uM) was 1.412, the “Burkin Assay in Myotubes, α7 integrin LacZ reporter signal relative to DMSO” value ([1]; 20 uM) was 0.9635 and the “Burkin Assay in Myotubes, α7 integrin LacZ reporter signal relative to DMSO” value ([1]; 40 uM) was 0.9403. For the same molecule, the “Burkin Assay in Myoblasts, signal relative to DMSO” value ([2]; 0.5 uM) was 1.02, the “Burkin Assay in Myoblasts, signal relative to DMSO” value ([2]; 1 uM) was 1.033 and the “Burkin Assay in Myoblasts, signal relative to DMSO” value ([2]; 5 uM) was 1.078. The “Burkin Assay in Myoblasts, signal relative to DMSO” value ([2]; 10 uM) was 1.115, the “Burkin Assay in Myoblasts, signal relative to DMSO” value ([2]; 20 uM) was 0.958 and the “Burkin Assay in Myoblasts, signal relative to DMSO” value ([2]; 40 uM) was 0.9783. The “CMV-LACZ in Myotubes, signal relative to DMSO” value ([3]; 5 uM) was 1.001, the “CMV-LACZ in Myotubes, signal relative to DMSO” value ([3]; 10 uM) was 0.9613 and the “CMV-LACZ in Myotubes, signal relative to DMSO” value ([3]; 20 uM) was 1.017. The “CMV-LACZ in Myotubes, signal relative to DMSO” value ([3]; 40 uM) was 0.9667.

With `NC(=O)c1cccnc1Oc1ccc(Cl)cc1Cl` [MLS000861434-01] the “Burkin Assay in Myotubes, α7 integrin LacZ reporter signal relative to DMSO” value ([1]; 0.5 uM) was 0.9593, the “Burkin Assay in Myotubes, α7 integrin LacZ reporter signal relative to DMSO” value ([1]; 1 uM) was 1.066 and the “Burkin Assay in Myotubes, α7 integrin LacZ reporter signal relative to DMSO” value ([1]; 5 uM) was 0.9788. For the same molecule, the “Burkin Assay in Myotubes, α7 integrin LacZ reporter signal relative to DMSO” value ([1]; 10 uM) was 1.101, the “Burkin Assay in Myotubes, α7 integrin LacZ reporter signal relative to DMSO” value ([1]; 20 uM) was 0.8762 and the “Burkin Assay in Myotubes, α7 integrin LacZ reporter signal relative to DMSO” value ([1]; 40 uM) was 1.058. The “Burkin Assay in Myoblasts, signal relative to DMSO” value ([2]; 0.5 uM) was 0.9464, the “Burkin Assay in Myoblasts, signal relative to DMSO” value ([2]; 1 uM) was 1.028 and the “Burkin Assay in Myoblasts, signal relative to DMSO” value ([2]; 5 uM) was 0.9133. The “Burkin Assay in Myoblasts, signal relative to DMSO” value ([2]; 10 uM) was 0.9772, the “Burkin Assay in Myoblasts, signal relative to DMSO” value ([2]; 20 uM) was 0.8777 and the “Burkin Assay in Myoblasts, signal relative to DMSO” value ([2]; 40 uM) was 0.9322. The “CMV-LACZ in Myotubes, signal relative to DMSO” value ([3]; 5 uM) was 0.8844, the “CMV-LACZ in Myotubes, signal relative to DMSO” value ([3]; 10 uM) was 0.8027 and the “CMV-LACZ in Myotubes, signal relative to DMSO” value ([3]; 20 uM) was 0.8429. The “CMV-LACZ in Myotubes, signal relative to DMSO” value ([3]; 40 uM) was 0.8381.

In the case of `CCCS(=O)(=O)N1CCCC(C(=O)c2cccc(Cl)c2)C1` (stereo not shown) [MLS000862690-01], the “Burkin Assay in Myotubes (signal relative to DMSO)” value ([1]; 0.5 uM) is reported as 1.125, the “Burkin Assay in Myotubes (signal relative to DMSO)” value ([1]; 1 uM) is reported as 0.9576 and the “Burkin Assay in Myotubes (signal relative to DMSO)” value ([1]; 5 uM) is reported as 0.5941. For the same molecule, the “Burkin Assay in Myotubes (signal relative to DMSO)” value ([1]; 10 uM) was 0.9481, the “Burkin Assay in Myotubes (signal relative to DMSO)” value ([1]; 20 uM) was 1.0131 and the “Burkin Assay in Myotubes (signal relative to DMSO)” value ([1]; 40 uM) was 1.0763. For the same molecule, the “Burkin Assay in Myoblasts, value relative to DMSO” value ([2]; 0.5 uM) was 1.029, the “Burkin Assay in Myoblasts, value relative to DMSO” value ([2]; 1 uM) was 1.027 and the “Burkin Assay in Myoblasts, value relative to DMSO” value ([2]; 5 uM) was 1.009. For the same molecule, the “Burkin Assay in Myoblasts, value relative to DMSO” value ([2]; 10 uM) was 1.004, the “Burkin Assay in Myoblasts, value relative to DMSO” value ([2]; 20 uM) was 0.8717 and the “Burkin Assay in Myoblasts, value relative to DMSO” value ([2]; 40 uM) was 0.9753. The “CMV-LACZ in Myotubes, signal relative to DMSO” value ([3]; 5 uM) was 0.8684, the “CMV-LACZ in Myotubes, signal relative to DMSO” value ([3]; 10 uM) was 0.8943 and the “CMV-LACZ in Myotubes, signal relative to DMSO” value ([3]; 20 uM) was 0.9323. The “CMV-LACZ in Myotubes, signal relative to DMSO” value ([3]; 40 uM) was 1.018.
